Consider four compounds from US11980595B2, “Preventive or therapeutic agent and pharmaceutical composition for inflammatory diseases or bone diseases” (National University Corporation Chiba University, priority 2018, dated 2024).

Assay [1] relates to DSS-treated mice, the ulcerative colitis animal model. Nature of the assay: Disease condition score in DSS ulcerative colitis model mice. Particulars: for disease condition score: 3% DSS mice, scored day 7, 10, 12, 14.
A further assay deals with Interleukin (IL)-6. Nature of the assay: Inflammatory cytokine IL-6 in plasma of DSS ulcerative colitis model mice (ELISA). It is filed as in vivo. Particulars: for IL-6 concentration in blood: 3% DSS mice, plasma day 15, compared to DSS+saline.
Excerpt: Furthermore, after the blood collection was completed, the mice in each group were euthanized by exsanguination under isoflurane anesthesia.
(§1) Interleukin (IL)-6 was quantified as the inflammatory cytokine. IL-6 was quantified by ELISA method using a commercially available kit.
Furthermore, after blood collection was completed, the mice in each group were euthanized by exsanguination under isoflurane anesthesia.
as §1
Background: An ELISA detects its analyte on a solid surface through an enzyme-linked reagent.

The next assay has as its system sRANKL-administered mice. Nature of the assay: Femur bone density by X-ray CT in sRANKL-administered mice (osteoporosis model). Particulars: Experimental Example 12, sRANKL (1 mg/kg) mice, 10 mg/kg i.p. 30 minutes before sRANKL and 24 and 48 hours after.
Assay [2] deals with social defeat stress mice. In words: Femur bone density by X-ray CT in social defeat stress mice. It is filed as in vivo. The following applies: Experimental Example 11, 10 mg/kg i.p. once, D15, compared to saline.
A further assay relates to ovariectomized mice. Nature of the assay: Femur bone density by X-ray CT in ovariectomized mice (osteoporosis model). It is filed as in vivo. Particulars: Experimental Example 13, 10 mg/kg i.p. Monday and Thursday, 6 weeks after surgery, compared to saline. An excerpt: The effect of R-ketamine was examined using ovariectomized mice as a model animal for osteoporosis.

The subject of assay [3] is social defeat stress mice. In words: Behavioral rating (tail suspension, forced swimming, sucrose preference tests) in social defeat stress mice. The following applies: Experimental Example 11, 10 mg/kg i.p. once on D12, tests D12-D14, compared to saline.
The subject of assay [4] is DSS-treated mice, the ulcerative colitis animal model. In words: Colonic inflammation score in DSS ulcerative colitis model mice. Type of assay: in vivo. The following applies: 3% DSS mice, 10 mg/kg i.p. once a day for 14 days, day 15. How it is done: The mice from each group that had been euthanized were resected from cecum to anus, and a length from directly below the cecum to the anus was measured. Subsequently, the lumen of the colon was washed with saline, and after washing, an incision was made in the longitudinal direction, and a colonic inflammation score was determined according to the following evaluation criteria.
The mice from each group that had been euthanized were resected from the cecum to the anus, and the length from directly below the cecum to the anus was measured.

Another assay relates to RANKL. Nature of the assay: Plasma RANKL and OPG/RANKL ratio in social defeat stress mice (ELISA). Particulars: for OPG/RANKL ratio / RANKL concentration in plasma: compared to saline; for restoring abnormally high expression of RANKL to a normal value: summary of Experimental Example 6, 10 mg/kg i.p. once; for therapeutic effect (restoring abnormally high expression of RANKL to a normal value): summary of Experimental Example 11, 10 mg/kg i.p. once.

A further assay relates to NMDA receptors. Particulars: S-ketamine compared to R-ketamine; cited from earlier work.
Where [5] appears, read: Experimental Example 2, 10 mg/kg i.p. once a day for 14 days.
[6] abbreviates: summary of Experimental Examples 1 to 4, intraperitoneal 10 mg/kg.
Where [7] appears, read: Experimental Example 4, 10 mg/kg i.p. once a day for 14 days.
The mark [8] stands for this setting: Experimental Example 6, 10 mg/kg i.p. once, four days after.
Where [9] appears, read: Experimental Example 6, 10 mg/kg i.p. once, plasma four days after.
Setting [10] is: Experimental Example 11, 10 mg/kg i.p. once, plasma three days after (D15).

Turning to `Nc1ccc(O)c(C(=O)O)c1` [5-ASA, 5-aminosalicylic acid, reference compound], the disease condition score result in assay [1] (Experimental Example 8, 50 mg/kg i.p. once a day for 14 days, compared to DSS and saline) was “improvement tendency of the disease condition score was observed in the “DSS+5-ASA” group, but it was not significant”. Also, in assay [1] (summary of Experimental Examples 7 to 10, intraperitoneal 50 mg/kg), the “therapeutic effect in ulcerative colitis animal model” value was “extremely weak therapeutic effect”. Further, the “IL-6 concentration in blood” value with Interleukin (IL)-6 (Experimental Example 10, 50 mg/kg i.p. once a day for 14 days) was “a significant decrease of IL-6 concentration in blood was not observed”.
Consider `CN[C@@]1(c2ccccc2Cl)CCCCC1=O` [R-ketamine], for which the cancellous bone density result was “significantly increased” with sRANKL-administered mice and “tended to increase along with R-ketamine administration, but it was not statistically significant” in the assay on ovariectomized mice. Besides, the cortical bone density entry (with sRANKL-administered mice (compared to saline); in [2]; with ovariectomized mice) was “significantly improved” each time. The total bone density entry (in the assay with sRANKL-administered mice (compared to saline); in assay [2]; in the assay on ovariectomized mice) was “significantly improved” in each case. Besides, the plane bone density entry in the assay with ovariectomized mice is “tended to increase along with R-ketamine administration, but it was not statistically significant”. Besides, the disease condition score entry in assay [1] (setting [5]) was “significant improvement of the disease condition score”; in assay [1] (Experimental Example 8, 10 mg/kg i.p. once a day for 14 days, compared to DSS and saline) it was “significant improvement of the disease condition score”. Moreover, the “therapeutic effect in ulcerative colitis animal model” value in assay [1] (setting [6]) is recorded as “exhibited a therapeutic effect”; in assay [1] (summary of Experimental Examples 7 to 10, intraperitoneal 10 mg/kg) it was “significant therapeutic effect”. In [3], the “antidepressant effect (tail suspension test, forced swimming test, sucrose preference test)” value is “significantly higher antidepressant effect”. For the same compound, the colonic inflammation score result is on record as “significant improvement of the colonic inflammation score” in assay [4] (Experimental Example 3, compared to DSS+S-ketamine group) and “significant improvement of the colonic inflammation score” in assay [4] (Experimental Example 9, compared to DSS+5-ASA (50 mg/kg) group). In addition, in the assay with Interleukin (IL)-6 (setting [7]), the “effect of reducing IL-6 in blood, R-ketamine compared to S-ketamine” value was “higher than when administering S-ketamine”. The “IL-6 concentration in blood” value in the assay with Interleukin (IL)-6 (setting [7]) is “significant decrease of IL-6 concentration in blood”; in the assay with Interleukin (IL)-6 (Experimental Example 10, 10 mg/kg i.p. once a day for 14 days) it was “a significant decrease of IL-6 concentration in blood was observed”. Besides, the OPG/RANKL ratio result in the assay on RANKL (setting [8]) is “significantly increased”; in the assay on RANKL (Experimental Example 11, 10 mg/kg i.p. once, three days after (D15)), “significantly increased”. For the same compound, the “RANKL concentration in plasma” value in the assay on RANKL (setting [9]) and in the assay on RANKL (setting [10]) was “significantly decreased” each time. The “restoring abnormally high expression of RANKL to a normal value” in the assay with RANKL was “able to restore an abnormally high expression of RANKL to a normal value”. The “therapeutic effect (restoring abnormally high expression of RANKL to a normal value)” value in the assay on RANKL was “able to restore an abnormally high expression of RANKL to a normal value”.
As for `CN[C@]1(c2ccccc2Cl)CCCCC1=O` [S-ketamine], the disease condition score result in [1] (setting [5]) is given as “improvement tendency of the disease condition score was observed in the “DSS+S-ketamine” group, but it was not significant”. Moreover, the “therapeutic effect in ulcerative colitis animal model” value in [1] (setting [6]) is given as “exhibited a tendency for a therapeutic effect in the ulcerative colitis animal model, but the effect was weaker than that of R-ketamine”. The “affinity for NMDA receptors” value in the assay with NMDA receptors was “stronger affinity for NMDA receptors than R-ketamine”. The “IL-6 concentration in blood” value in the assay on Interleukin (IL)-6 (setting [7]) is listed as “significant decrease of IL-6 concentration in blood”. The OPG/RANKL ratio result with RANKL (setting [8]) is “a significant change to the OPG/RANKL ratio was not observed”. The “RANKL concentration in plasma” value in the assay with RANKL (setting [9]) is reported as “a significant change to RANKL concentration in plasma was not observed”. Moreover, the “restoring abnormally high expression of RANKL to a normal value” with RANKL was “such an effect was not observed”.
As for `N[C@@]1(c2ccccc2Cl)CCC[C@@H](O)C1=O` [2R,6R-HNK, 2R,6R-hydroxynorketamine], in [2], the cortical bone density entry is “no significant change” and the total bone density entry is “no significant change”. For the same compound, the “antidepressant effect (tail suspension test, forced swimming test, sucrose preference test)” value in [3] was “no antidepressant effect”. Moreover, the “RANKL concentration in plasma” value in the assay with RANKL (setting [10]) is “a significant change to RANKL concentration in plasma was not observed”. For the same compound, in the assay on RANKL (Experimental Example 11, 10 mg/kg i.p. once, three days after (D15), 10 mg/kg), the OPG/RANKL ratio entry is reported as “a significant change to the OPG/RANKL ratio was not observed”. In addition, in the assay on RANKL, the “therapeutic effect (restoring abnormally high expression of RANKL to a normal value)” value was “no therapeutic effect was observed”.
